Assay results reported in ChEMBL document CHEMBL4196217, “Structure-Based Drug Design and Identification of H2O-Soluble and Low Toxic Hexacyclic Camptothecin Derivatives with Improved Efficacy in Cancer and Lethal Inflammation Models in Vivo” (J Med Chem, 2018).
pIC50: −log10 of the molar value.

Tests used:
MDA-MB-231 = assay: Cytotoxicity in human MDA-MB-231 cells assessed as reduction in cell viability incubated for 48 hrs by MTT assay; assay type: functional, cell-based; conditions: MDA-MB-231, 48 h
HepG2 = assay: Cytotoxicity in human HepG2 cells assessed as reduction in cell viability incubated for 48 hrs by MTT assay; assay type: functional, cell-based; conditions: HepG2, 48 h
KB = assay: Cytotoxicity in human KB cells assessed as reduction in cell viability incubated for 48 hrs by MTT assay; assay type: functional, cell-based
Bel-7402 = assay: Cytotoxicity in human Bel7402 cells assessed as reduction in cell viability incubated for 48 hrs by MTT assay; assay type: functional, cell-based; conditions: Bel-7402, 48 h
SMMC-7721 = assay: Cytotoxicity in human SMMC7721 cells assessed as reduction in cell viability incubated for 48 hrs by MTT assay; assay type: functional, cell-based; conditions: SMMC-7721, 48 h
MGC-803 = assay: Cytotoxicity in human MGC803 cells assessed as reduction in cell viability incubated for 48 hrs by MTT assay; assay type: functional, cell-based; conditions: MGC-803, 48 h
SK-N-SH = assay: Cytotoxicity in human SK-N-SH cells assessed as reduction in cell viability incubated for 48 hrs by MTT assay; assay type: functional, cell-based
QGY-7703 = assay: Cytotoxicity in human QGY7703 cells assessed as reduction in cell viability incubated for 48 hrs by MTT assay; assay type: functional, cell-based; conditions: QGY-7703, 48 h
SGC-7901 = assay: Cytotoxicity in human SGC7901 cells assessed as reduction in cell viability incubated for 48 hrs by MTT assay; assay type: functional, cell-based; conditions: SGC-7901, 48 h
A549 = assay: cells; conditions: Homo sapiens, A549, 48 h
Description: Cytotoxicity in human A549 cells assessed as reduction in cell viability incubated for 48 hrs by MTT assay

MCF7 = assay: cells; conditions: Homo sapiens, MCF7, 48 h
Description: Cytotoxicity in human MCF7 cells assessed as reduction in cell viability incubated for 48 hrs by MTT assay

Q: Which results are given for `CC[C@@]1(OC(=O)CNC(=O)CCC(=O)O)C(=O)OCc2c1cc1n(c2=O)Cc2cc3c(ccc4oncc43)nc2-1`?
A: pIC50 (MDA-MB-231): 6.19; pIC50 (HepG2): 6.46; pIC50 (KB): 5.15; pIC50 (Bel-7402): 5.70; pIC50 (SMMC-7721): < 5.00; pIC50 (MGC-803): 6.56; pIC50 (SK-N-SH): 6.26; pIC50 (QGY-7703): < 5.00; pIC50 (SGC-7901): < 5.00; pIC50 (A549): 5.74; pIC50 (MCF7): < 5.00

Q: How did the pIC50 (MDA-MB-231) turn out when `CC[C@@]1(O)C(=O)OCc2c1cc1n(c2=O)Cc2cc3c(ccc4oc(CC(C)C)nc43)nc2-1` was run?
A: 5.67

Q: And the pIC50 (HepG2)?
A: 7.10

Q: What about the pIC50 (KB) of the same molecule?
A: 5.66

Q: What about the pIC50 (Bel-7402) of the same molecule?
A: 5.67

Q: What about the pIC50 (SMMC-7721) of the same molecule?
A: 4.96

Q: What about the pIC50 (MGC-803) of the same molecule?
A: 7.05

Q: And the pIC50 (QGY-7703)?
A: < 5.00

Q: And the pIC50 (SGC-7901)?
A: < 5.00

Q: What about the pIC50 (A549) of the same molecule?
A: 5.47

Q: And the pIC50 (MCF7)?
A: 5.10

Q: How did the pIC50 (MDA-MB-231) turn out when `CCCCc1nc2c(ccc3nc4c(cc32)Cn2c-4cc3c(c2=O)COC(=O)[C@]3(O)CC)o1` was run?
A: 6.25

Q: What about the pIC50 (HepG2) of the same molecule?
A: 7.20

Q: What about the pIC50 (KB) of the same molecule?
A: 5.65

Q: What about the pIC50 (Bel-7402) of the same molecule?
A: 5.69

Q: And the pIC50 (SMMC-7721)?
A: < 5.00

Q: And the pIC50 (MGC-803)?
A: 7.07

Q: What about the pIC50 (QGY-7703) of the same molecule?
A: < 5.00

Q: And the pIC50 (SGC-7901)?
A: < 5.00

Q: What about the pIC50 (A549) of the same molecule?
A: 5.95

Q: What about the pIC50 (MCF7) of the same molecule?
A: 5.67

Q: With `CC[C@@]1(O)C(=O)OCc2c1cc1n(c2=O)Cc2cc3c(ccc4oncc43)nc2-1` as the molecule, how does the pIC50 (MDA-MB-231) read?
A: 6.31

Q: And the pIC50 (HepG2)?
A: 7.19

Q: What about the pIC50 (KB) of the same molecule?
A: 5.48

Q: And the pIC50 (Bel-7402)?
A: 4.98

Q: What about the pIC50 (SMMC-7721) of the same molecule?
A: < 5.00

Q: What about the pIC50 (MGC-803) of the same molecule?
A: 6.29

Q: And the pIC50 (SK-N-SH)?
A: 6.33

Q: And the pIC50 (QGY-7703)?
A: < 5.00

Q: What about the pIC50 (SGC-7901) of the same molecule?
A: < 5.00

Q: And the pIC50 (A549)?
A: 5.99

Q: What about the pIC50 (MCF7) of the same molecule?
A: 5.94

Q: Which results are given for `CC[C@@]1(OC(=O)CNC(=O)CCC(=O)O)C(=O)OCc2c1cc1n(c2=O)Cc2cc3c(ccc4ocnc43)nc2-1`?
A: pIC50 (MDA-MB-231): 6.46; pIC50 (HepG2): 7.26; pIC50 (KB): 6.04; pIC50 (Bel-7402): 6.56; pIC50 (SMMC-7721): < 5.00; pIC50 (MGC-803): 7.19; pIC50 (SK-N-SH): 6.46; pIC50 (QGY-7703): < 5.00; pIC50 (SGC-7901): < 5.00; pIC50 (A549): 7.04; pIC50 (MCF7): < 5.00

Q: With `CC[C@@]1(O)C(=O)OCc2c1cc1n(c2=O)Cc2cc3c(ccc4ocnc43)nc2-1` as the molecule, how does the pIC50 (MDA-MB-231) read?
A: 5.81

Q: What about the pIC50 (HepG2) of the same molecule?
A: 6.74

Q: And the pIC50 (KB)?
A: 5.59

Q: What about the pIC50 (Bel-7402) of the same molecule?
A: 5.61

Q: And the pIC50 (SMMC-7721)?
A: 5.51

Q: What about the pIC50 (MGC-803) of the same molecule?
A: 6.64

Q: And the pIC50 (QGY-7703)?
A: 4.94

Q: What about the pIC50 (SGC-7901) of the same molecule?
A: < 5.00

Q: What about the pIC50 (A549) of the same molecule?
A: 5.69

Q: And the pIC50 (MCF7)?
A: 5.64
